Measurements taken from PMC9953468, “In Silico, In Vitro, and Ex Vivo Biological Activity of Some Novel Mebeverine Precursors” (Biomedicines, 2023).

Experiments:
Assay in all cases: Antimicrobial activity, agar well diffusion method
Type in all cases: cell-based
Settings in all cases: Dose 0.6 mg/disk, dwell = 6 mm
[1] = tested on: Escherichia coli ATCC 25922
From the text: (§1) Eighteen tested microorganisms including five Gram-positive bacteria (Bacillus subtilis ATCC 6633, Bacillus amyloliquefaciens 4BCL-YT, Staphylococcus aureus ATCC 25923, Listeria monocytogenes NBIMCC 8632, Enterococcus faecalis ATCC 19433), five Gram-negative bacteria (Salmonella enteritidis ATCC 13076, Klebsiella sp.—clinical isolate, Escherichia coli ATCC 25922, Proteus vulgaris ATCC 6380, Pseudomonas aeruginosa ATCC 9027), two yeasts (Candida albicans NBIMCC 74, Saccharomyces cerevisiae ATCC 9763) and six fungi (Aspergillus niger ATCC 1015, Aspergillus flavus, Penicillium sp., Rhizopus sp., Mucor sp.—plant isolates, Fusarium moniliforme ATCC 38932) from the collection of the Department of Microbiology at the University of Food Technologies—Plovdiv, Bulgaria, were selected for the antimicrobial activity test.
(§2) The antimicrobial activity of the samples was determined by the agar well diffusion method. The tested bacteria B. subtilis and B. amyloliquefaciens were cultured on LBG agar at 30 °C. The test bacteria S. aureus, L. monocytogenes, E. faecalis, S. enteritidis, Klebsiella sp., E. coli, P. vulgaris and P. aeruginosa were cultured on LBG agar at 37 °C for 24 h. The yeast C. albicans was cultured on MEA at 37 °C, while S. cerevisiae was cultured on MEA at 30 °C for 24 h. The fungi A. niger, A. flavus, Penicillium sp., Rhizopus sp., Mucor sp., and F. moniliforme were grown on MEA at 30 °C for 7 days or until sporulation.
(§3) The inocula of the tested bacteria/yeasts were prepared by homogenization of a small amount of biomass in 5 mL of sterile 0.5% NaCl. The inocula of tested fungi were prepared by the addition of 5 mL of sterile 0.5% NaCl into the tubes. After stirring by vortex V-1 plus (Biosan), they were filtered and replaced in other tubes before use. The number of viable cells and fungal spores was determined using a bacterial counting chamber Thoma (Poly-Optik, GmbH, Bad Blankenburg, Germany). Their final concentrations were adjusted to 10^8 cfu/mL for bacterial/yeast cells and 10^5 cfu/mL for fungal spores and then inoculated in preliminarily melted and tempered at 45–48 °C LBG/MEA agar media. Next, the inoculated media were transferred in a quantity of 18 mL in sterile Petri plates (d = 90 mm) (Gosselin™, Hazebrouck, France) and allowed to harden. Then, six wells (d = 6 mm) per plate were cut, and triplicates of 60 μL of each extract were pipetted into the agar wells. The Petri plates were incubated in identical conditions.
(§4) The antimicrobial activity was determined by measuring the diameter of the inhibition zones around the wells on the 24th and 48th h of incubation. […]

[2] = tested on: Saccharomyces cerevisiae
From the text: as §1, §2, §3, §4

[3] = tested on: Klebsiella sp.
From the text: as §1, §2, §3, §4

[4] = tested on: Pseudomonas aeruginosa ATCC 9027
From the text: as §1, §2, §3, §4

CC(=O)NC(Cc1ccccc1)C(C)C (stereo not shown) [Compound 4a, N-(3-methyl-1-phenylbutan-2-yl)acetamide] was tested, and the “Inhibition Zones” value [1] was 8 mm.

In the case of CC(C)C(N)Cc1ccccc1 (stereo not shown) [Compound 3, 3-Methyl-1-phenylbutan-2-amine], the “Inhibition Zones” value [2] is reported as 8 mm, the “Inhibition Zones” value [3] is reported as 8 mm and the “Inhibition Zones” value [4] is reported as 9 mm.
